This is an account of results in article PMC2990348 (Journal of medicinal chemistry, 2010).

The test system of the assay is poliovirus. The assay is classed as cell-based.

With `Cc1ncnc2c1ncn2[C@@H]1O[C@H](CO)[C@@H](O)[C@H]1O` [Compound 2, 6-methyl-9-β-D-ribofuranosylpurine, reference compound], the “Frequency of viral mutagenesis compared to ribavirin” value is reported as “neither 6 nor 2 increased the frequency of viral mutagenesis”.

Consider `Cc1ncnc2c1ccn2[C@@H]1O[C@H](CO)[C@@H](O)[C@H]1O` [Compound 6, 4-Methyl-7-β-D-ribofuranosylpyrrolo[2,3-d]pyrimidine], for which the “Frequency of viral mutagenesis compared to ribavirin” value is given as “neither 6 nor 2 increased the frequency of viral mutagenesis”.
